Patent publication US20260317324A1, “BIFUNCTIONAL COMPOUNDS FOR DEGRADING BRAF VIA UBIQUITIN PROTEOSOME PATHWAY” (Nurix Therapeutics, Inc., priority 2023, published 2026)

How the values were obtained:
Type in all cases: cell-based
BRAF G466V = molecular target: T1, BRAF G466V (Homo sapiens, UniProt P15056, G466V); test: BRAF HiBiT degradation assay, C-terminal HiBiT-tagged BRAF G466V overexpressed in HCT-116 BRAF−/− cells (clone 8), Nano-Glo HiBiT Lytic assay
T1 construct: Horizon Discovery (HCT-116 BRAF−/− cells); host or cells: HCT-116 BRAF−/− cells, clone 8, lentiviral transduction
T1 sequence (P15056 whole entry G466V): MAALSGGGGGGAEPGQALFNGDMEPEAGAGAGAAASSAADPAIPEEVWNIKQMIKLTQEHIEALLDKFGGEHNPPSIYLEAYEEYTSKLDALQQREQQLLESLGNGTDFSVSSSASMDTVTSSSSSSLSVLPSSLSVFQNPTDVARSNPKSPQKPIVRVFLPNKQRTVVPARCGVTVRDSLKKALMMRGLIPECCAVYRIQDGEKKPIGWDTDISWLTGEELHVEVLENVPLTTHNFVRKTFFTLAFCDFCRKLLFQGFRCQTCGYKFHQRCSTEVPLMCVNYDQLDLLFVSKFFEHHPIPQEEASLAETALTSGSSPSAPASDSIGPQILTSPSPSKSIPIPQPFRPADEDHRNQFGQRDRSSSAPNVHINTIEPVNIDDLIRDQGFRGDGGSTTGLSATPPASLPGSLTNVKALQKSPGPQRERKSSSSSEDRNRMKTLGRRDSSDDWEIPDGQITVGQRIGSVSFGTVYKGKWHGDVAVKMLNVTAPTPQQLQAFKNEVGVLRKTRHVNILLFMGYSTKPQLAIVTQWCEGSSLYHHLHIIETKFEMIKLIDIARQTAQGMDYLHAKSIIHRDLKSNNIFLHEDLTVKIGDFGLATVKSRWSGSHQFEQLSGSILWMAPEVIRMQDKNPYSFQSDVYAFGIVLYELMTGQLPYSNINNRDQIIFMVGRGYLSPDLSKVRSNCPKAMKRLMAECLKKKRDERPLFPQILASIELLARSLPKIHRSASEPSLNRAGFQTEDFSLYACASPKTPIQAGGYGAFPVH
Procedure, shortened: (§1)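 Degradation assay in HCT-116 BRAF−/− cells carrying lentiviral HiBiT-tagged mutant BRAF. The readout is % protein remaining across 1 μM to 0.01 nM compound, and DC50 marks 50% remaining.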

BRAF D594G = molecular target: T2, BRAF D594G (Homo sapiens, UniProt P15056, D594G); test: BRAF HiBiT degradation assay, C-terminal HiBiT-tagged BRAF D594G overexpressed in HCT-116 BRAF−/− cells (clone 63), Nano-Glo HiBiT Lytic assay
T2 construct: Horizon Discovery (HCT-116 BRAF−/− cells); host or cells: HCT-116 BRAF−/− cells, clone 63, lentiviral transduction
T2 sequence (P15056 whole entry D594G): as the sequence (P15056 whole entry G466V) above, with V466G, D594G counted along it
Procedure, shortened: as §1

BRAF G469A = molecular target: T3, BRAF G469A (Homo sapiens, UniProt P15056, G469A); test: BRAF HiBiT degradation assay, C-terminal HiBiT-tagged BRAF G469A overexpressed in HCT-116 BRAF−/− cells (clone 34), Nano-Glo HiBiT Lytic assay
T3 construct: Horizon Discovery (HCT-116 BRAF−/− cells); host or cells: HCT-116 BRAF−/− cells, clone 34, lentiviral transduction
T3 sequence (P15056 whole entry G469A): as the sequence (P15056 whole entry G466V) above, with V466G, G469A counted along it
Procedure, shortened: as §1

BRAF V600E = molecular target: T4, BRAF V600E (Homo sapiens, UniProt P15056, V600E); test: BRAF HiBiT degradation assay, C-terminal HiBiT-tagged BRAF V600E A375 cells (clone 1F10), Nano-Glo HiBiT Lytic assay; conditions: for Dmax: A-375
T4 construct: endogenous C-terminal HiBiT fusion tag on BRAF V600E allele; endogenous in cells; host or cells: A375 clone 1F10 (CRISPR-Cas9 knock-in of the HiBiT tag; parental A375 from ATCC)
T4 sequence (P15056 whole entry V600E, the tested form may be a part): as the sequence (P15056 whole entry G466V) above, with V466G, V600E counted along it
Procedure, shortened: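 Using CRISPR-engineered A375 cells that carry a C-terminal HiBiT tag on endogenous BRAF V600E, remaining protein was quantified by lytic luminescence relative to DMSO-treated cells, with wildtype A375 as the background control. DC50 denotes the concentration giving 50% degradation.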

[1] = BRAF G466V (Class 3), HCT-116 BRAF−/− cells, DC50 at 50% degradation
[2] = BRAF G466V (Class 3), HCT-116 BRAF−/− cells, observed Dmax relative to DMSO control
[3] = BRAF D594G (Class 3), HCT-116 BRAF−/− cells, DC50 at 50% degradation
[4] = BRAF D594G (Class 3), HCT-116 BRAF−/− cells, observed Dmax relative to DMSO control
[5] = BRAF G469A (Class 2), HCT-116 BRAF−/− cells, DC50 at 50% degradation
[6] = BRAF G469A (Class 2), HCT-116 BRAF−/− cells, observed Dmax relative to DMSO control
[7] = A375 (BRAF V600E, Class 1), DC50 at 50% degradation
[8] = A375 (BRAF V600E, Class 1), observed Dmax, % protein degraded relative to DMSO control
[9] = BRAF G466V, DC50 at 50%: fitted conc. at Y=50
[10] = HCT-116, BRAF G466V, percentage protein degraded at maximal compound effect relative to DMSO
[11] = BRAF D594G, DC50 at 50%: fitted conc. at Y=50
[12] = HCT-116, BRAF D594G, percentage protein degraded at maximal compound effect relative to DMSO
[13] = Class 2, BRAF G469A, DC50 at 50%: fitted conc. at Y=50
[14] = HCT-116, Class 2, BRAF G469A, percentage protein degraded at maximal compound effect relative to DMSO
[15] = A375 (BRAF V600E), DC50 at 50%: fitted conc. at Y=50
[16] = A375 (BRAF V600E), percentage protein degraded at maximal compound effect relative to DMSO

O=C1CCC(c2ccc(N3CCC(CN4CCN(c5ccc(-n6cc(-c7cc(Cl)cc(NS(=O)(=O)C8CCCC8)c7F)c(-c7ccncc7)n6)cc5)CC4)CC3)nc2)C(=O)N1 (racemic) [Compound 373, Rac-N-{5-chloro-3-[1-(4-{4-[(1-{5-[(3R)-2,6-dioxopiperidin-3-yl]pyridin-2-yl}piperidin-4-yl)methyl]piperazin-1-yl}phenyl)-3-(pyridin-4-yl)-1H-pyrazol-4-yl]-2-fluorophenyl}cyclopentanesulfonamide]
DC50 (BRAF G466V; [1]): < 10 nM
Dmax (BRAF G466V; [2]): > 70%
DC50 (BRAF D594G; [3]): < 10 nM
Dmax (BRAF D594G; [4]): > 70%
DC50 (BRAF G469A; [5]): 10 to 50 nM
Dmax (BRAF G469A; [6]): > 70%
DC50 (BRAF V600E; [7]): < 10 nM
Dmax (BRAF V600E; [8]): > 70%

O=C1CCN(c2ccc(N3CCC(CN4CCN(c5ccc(-n6cc(-c7cc(Cl)cc(NS(=O)(=O)N8CC[C@@H](F)C8)c7F)c(-c7ccncc7)n6)cc5)CC4)CC3)nc2)C(=O)N1 [Compound 263, (R)—N-(5-chloro-3-(1-(4-(4-((1-(5-(2,4-dioxotetrahydropyrimidin-1(2H)-yl)pyridin-2-yl)piperidin-4-yl)methyl)piperazin-1-yl)phenyl)-3-(pyridin-4-yl)-1H-pyrazol-4-yl)-2-fluorophenyl)-3-fluoropyrrolidine-1-sulfonamide]
DC50 (BRAF G466V; [1]): < 10 nM
Dmax (BRAF G466V; [2]): > 70%
DC50 (BRAF D594G; [3]): < 10 nM
Dmax (BRAF D594G; [4]): 30 to 70%
DC50 (BRAF G469A; [5]): < 10 nM
Dmax (BRAF G469A; [6]): 30 to 70%
DC50 (BRAF V600E; [7]): < 10 nM
Dmax (BRAF V600E; [8]): > 70%

O=C1CC[C@H](c2ccc(N3CCC(CN4CCCN(c5ccc(-n6cc(-c7cc(Cl)cc(NS(=O)(=O)N8CCCC8)c7F)c(-c7ccncc7)n6)c(F)c5)CC4)CC3)cc2)C(=O)N1 [Compound 346, N-{5-chloro-3-[1-(4-{4-[(1-{4-[(3R)-2,6-dioxopiperidin-3-yl]phenyl}piperidin-4-yl)methyl]-1,4-diazepan-1-yl}-2-fluorophenyl)-3-(pyridin-4-yl)-1H-pyrazol-4-yl]-2-fluorophenyl}pyrrolidine-1-sulfonamide]
DC50 (BRAF G466V; [1]): > 500 nM
Dmax (BRAF G466V; [2]): 30 to 70%
DC50 (BRAF D594G; [3]): > 500 nM
Dmax (BRAF D594G; [4]): < 30%
DC50 (BRAF G469A; [5]): > 500 nM
Dmax (BRAF G469A; [6]): < 30%
DC50 (BRAF V600E; [7]): < 10 nM
Dmax (BRAF V600E; [8]): > 70%

CCCS(=O)(=O)Nc1cccc(-c2nc(C3CCN(C(=O)C4CCN(C(=O)C5CCN(c6ccc(C7CCC(=O)NC7=O)cn6)CC5)CC4)CC3)sc2-c2ccnc(NC)n2)c1F (racemic) [Compound 212, Rac-N-[3-(2-{1-[1-(1-{5-[(3R)-2,6-dioxopiperidin-3-yl]pyridin-2-yl}piperidine-4-carbonyl)piperidine-4-carbonyl]piperidin-4-yl}-5-[2-(methylamino)pyrimidin-4-yl]-1,3-thiazol-4-yl)-2-fluorophenyl]propane-1-sulfonamide]
DC50 (BRAF G466V; [9]): < 10 nM
Dmax (BRAF G466V; [10]): 30 to 70%
DC50 (BRAF D594G; [11]): < 10 nM
Dmax (BRAF D594G; [12]): 30 to 70%
DC50 (BRAF G469A; [13]): 10 to 50 nM
Dmax (BRAF G469A; [14]): 30 to 70%
DC50 (BRAF V600E; [15]): < 10 nM
Dmax (BRAF V600E; [16]): > 70%

CCN(C)S(=O)(=O)Nc1cc(Cl)cc(-c2cn(-c3ccc(N4CCN(CC5CCN(c6ccc(N7CCC(=O)NC7=O)cc6)CC5)CC4)cc3)nc2-c2ccncc2)c1F [Compound 307, 1-(4-{4-[(4-{4-[4-(5-chloro-3-{[ethyl(methyl)sulfamoyl]amino}-2-fluorophenyl)-3-(pyridin-4-yl)-1H-pyrazol-1-yl]phenyl}piperazin-1-yl)methyl]piperidin-1-yl}phenyl)-1,3-diazinane-2,4-dione]
DC50 (BRAF G466V; [1]): < 10 nM
Dmax (BRAF G466V; [2]): > 70%
DC50 (BRAF D594G; [3]): 10 to 50 nM
Dmax (BRAF D594G; [4]): 30 to 70%
DC50 (BRAF G469A; [5]): 50 to 500 nM
Dmax (BRAF G469A; [6]): 30 to 70%
DC50 (BRAF V600E; [7]): < 10 nM
Dmax (BRAF V600E; [8]): > 70%

CCN(C)S(=O)(=O)Nc1cccc(-c2nc(C)sc2-c2ccnc(Nc3ccc(N4CCN(CC5CCN(c6ccc([C@H]7CCC(=O)NC7=O)cn6)CC5)CC4)cn3)n2)c1F [Compound 27, (3R)-3-{6-[4-({4-[6-({4-[4-(3-{[ethyl(methyl)sulfamoyl]amino}-2-fluorophenyl)-2-methyl-1,3-thiazol-5-yl]pyrimidin-2-yl}amino)pyridin-3-yl]piperazin-1-yl}methyl)piperidin-1-yl]pyridin-3-yl}piperidine-2,6-dione]
DC50 (BRAF G466V; [9]): 10 to 50 nM
Dmax (BRAF G466V; [10]): > 70%
DC50 (BRAF D594G; [11]): 10 to 50 nM
Dmax (BRAF D594G; [12]): 30 to 70%
DC50 (BRAF G469A; [13]): 50 to 500 nM
Dmax (BRAF G469A; [14]): 30 to 70%
DC50 (BRAF V600E; [15]): < 10 nM
Dmax (BRAF V600E; [16]): > 70%

CCCS(=O)(=O)Nc1cccc(-c2nc(C3CCN(C(=O)C4CCN(C(=O)C5CCN(c6ccc(C7CCC(=O)NC7=O)cn6)CC5)CC4)CC3)sc2-c2ccncc2)c1F (racemic) [Compound 210, Rac-N-[3-(2-{1-[1-(1-{5-[(3R)-2,6-dioxopiperidin-3-yl]pyridin-2-yl}piperidine-4-carbonyl)piperidine-4-carbonyl]piperidin-4-yl}-5-(pyridin-4-yl)-1,3-thiazol-4-yl)-2-fluorophenyl]propane-1-sulfonamide]
DC50 (BRAF G466V; [9]): < 10 nM
Dmax (BRAF G466V; [10]): 30 to 70%
DC50 (BRAF D594G; [11]): < 10 nM
Dmax (BRAF D594G; [12]): 30 to 70%
DC50 (BRAF G469A; [13]): 50 to 500 nM
Dmax (BRAF G469A; [14]): 30 to 70%
DC50 (BRAF V600E; [15]): < 10 nM
Dmax (BRAF V600E; [16]): > 70%

CCCS(=O)(=O)Nc1cccc(-c2nc(C(C)(C)C)sc2-c2ccnc(Nc3cnn(C4CCN(C(=O)[C@H]5CC[C@H](Oc6ccc(C7CCC(=O)NC7=O)cc6)CC5)CC4)c3)n2)c1F (mixture of isomers) [Compound 110, N-[3-(2-tert-butyl-5-{2-[(1-{1-[(1r,4r)-4-{4-[(3RS)-2,6-dioxopiperidin-3-yl]phenoxy}cyclohexanecarbonyl]piperidin-4-yl}-1H-pyrazol-4-yl)amino]pyrimidin-4-yl}-1,3-thiazol-4-yl)-2-fluorophenyl]propane-1-sulfonamide]
DC50 (BRAF G466V; [9]): > 500 nM
Dmax (BRAF G466V; [10]): < 30%
DC50 (BRAF D594G; [11]): > 500 nM
Dmax (BRAF D594G; [12]): < 30%
DC50 (BRAF G469A; [13]): > 500 nM
Dmax (BRAF G469A; [14]): < 30%
DC50 (BRAF V600E; [15]): < 10 nM
Dmax (BRAF V600E; [16]): 30 to 70%

CCN(C)S(=O)(=O)Nc1cccc(-c2nc(C3CCN(C(=O)C4CCN(C(=O)C5CCN(c6ccc(C7CCC(=O)NC7=O)cn6)CC5)CC4)CC3)sc2-c2ccnc(N)n2)c1F (racemic) [Compound 209, Rac-(3S)-3-{6-[4-(4-{4-[5-(2-aminopyrimidin-4-yl)-4-(3-{[ethyl(methyl)sulfamoyl]amino}-2-fluorophenyl)-1,3-thiazol-2-yl]piperidine-1-carbonyl}piperidine-1-carbonyl)piperidin-1-yl]pyridin-3-yl}piperidine-2,6-dione]
DC50 (BRAF G466V; [9]): < 10 nM
Dmax (BRAF G466V; [10]): > 70%
DC50 (BRAF D594G; [11]): < 10 nM
Dmax (BRAF D594G; [12]): > 70%
DC50 (BRAF G469A; [13]): 10 to 50 nM
Dmax (BRAF G469A; [14]): 30 to 70%
DC50 (BRAF V600E; [15]): < 10 nM
Dmax (BRAF V600E; [16]): > 70%

CCCS(=O)(=O)Nc1cccc(-c2nc(C3CCC4(CC3)CN(C(=O)CC3CCN(C5CCN(c6ccc7c(c6)C(=O)N(C6CCC(=O)NC6=O)C7=O)CC5)CC3)C4)sc2-c2ccnc(N)n2)c1F (racemic) [Compound 247, Rac-N-{3-[5-(2-aminopyrimidin-4-yl)-2-{2-[2-(1′-{2-[(3R)-2,6-dioxopiperidin-3-yl]-1,3-dioxo-2,3-dihydro-1H-isoindol-5-yl}-[1,4′-bipiperidin]-4-yl)acetyl]-2-azaspiro[3.5]nonan-7-yl}-1,3-thiazol-4-yl]-2-fluorophenyl}propane-1-sulfonamide]
DC50 (BRAF G466V; [1]): > 500 nM
Dmax (BRAF G466V; [2]): 30 to 70%
DC50 (BRAF D594G; [3]): > 500 nM
Dmax (BRAF D594G; [4]): 30 to 70%
DC50 (BRAF G469A; [5]): > 500 nM
Dmax (BRAF G469A; [6]): < 30%
DC50 (BRAF V600E; [7]): 10 to 50 nM
Dmax (BRAF V600E; [8]): > 70%
